Our source for the EC50, IC50 and metabolites identified values is US20250011311A1, “AMIDO HETEROAROMATIC COMPOUNDS” (AstraZeneca AB, priority 2022, published 2025).

Each structure is given as a SMILES string.

Data set [1] concerns the target human CB1 receptor expressed in transfected CHO cells (Homo sapiens (Human), UniProt P21554). The data set is described as follows: Assay C: CB1 Agonism Assay. It counts as cell-based. The note with it: agonist activity, cAMP HTRF, read-out: Assay C: CB1 Hu CHO cAMP TRF Ag CR GMean EC50. As to the method: Assay C: CB1 Agonism Assay
Evaluation of the agonist activity of compounds at the human CB1 receptor expressed in transfected CHO cells, determined by measuring their effects on cAMP modulation using the HTRF detection method.
Thereafter, the adenylyl cyclase activator NKH 477 is added at a final concentration of 3 μM. Following 20 min incubation at 37° C., the cells are lysed and the fluorescence acceptor (D2-labeled cAMP) and fluorescence donor (anti-cAMP antibody labeled with europium cryptate) are added. After 60 min at room temperature, the fluorescence transfer is measured at gex=337 nm and gem=620 and 665 nm using a microplate reader (RUBYSTAR, BMG). The cAMP concentration is determined by dividing the signal measured at 665 nm by that measured at 620 nm (ratio). The results are expressed as a percent of the control response to 30 nM CP 55940. The standard reference agonist is CP 55940, which is tested in each experiment at several concentrations to generate a concentration-response curve from which its EC50 value is calculated.
Bibliographic reference Felder, C. C. et al., (1995), Comparison of the pharmacology and signal transduction of the human cannabinoid CB1 and CB2 receptors, Mol. Pharmacol., 48: 443, which is incorporated herein by reference.

Data set [2] deals with over expressed HSD17β9 in HEK293S cells (Homo sapiens (Human), UniProt Q92781). The data set is described as follows: In Vitro 17bHSD9 Cell Assay. Format: cell-based. The following applies: HEK293S cells over expressing HSD17β9; retinol to retinal conversion, 18 h, LC-MS/MS; read-out: 17bHSD9 Cell assay IC50. An outline of the steps: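 HEK293S cells overexpressing HSD17β9 were plated at 10K cells/well in DMEM + 10% FBS and cultured 18 h. Retinol-to-retinal conversion in media was quantified by LC-MS/MS (MRM) as retinal/(retinal + retinol). IC50 was fitted after normalisation to DMSO and full inhibition by a reference inhibitor.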
Sequence of over expressed HSD17β9 in HEK293S cells (Q92781 whole entry): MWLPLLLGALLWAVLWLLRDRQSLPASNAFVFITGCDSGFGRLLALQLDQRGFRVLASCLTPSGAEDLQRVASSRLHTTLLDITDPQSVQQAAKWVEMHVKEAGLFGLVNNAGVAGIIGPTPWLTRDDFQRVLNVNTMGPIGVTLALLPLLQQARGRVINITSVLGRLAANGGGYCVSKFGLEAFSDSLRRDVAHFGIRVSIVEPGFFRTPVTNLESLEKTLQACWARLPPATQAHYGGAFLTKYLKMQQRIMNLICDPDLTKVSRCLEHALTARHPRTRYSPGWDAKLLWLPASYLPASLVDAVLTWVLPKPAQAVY

Data set [3] addresses over expressed HSD17β13 in HEK293S cells (Homo sapiens (Human), UniProt Q7Z5P4). In words: In Vitro 17bHSD13 Cell Assay. The note with it: HEK293S cells over expressing HSD17β13; estradiol to estrone conversion, 18 h, LC-MS/MS; read-out: 17bHSD1713 Cell assay IC50. Format: cell-based. Put shortly:
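HEK293S cells overexpressing HSD17β13 convert estradiol to estrone; product read by LC-MS/MS (APCI, positive MRM) as AUC ratio estrone/(estrone+estradiol). Effect normalised between DMSO and maximal inhibition by a known inhibitor control; IC50 from curve fit.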

Data set [4] in a line: Metabolism Study: in vitro study to identify metabolites. It counts as in vitro ADME. An excerpt:
Metabolites 1 and 2 were subsequently synthesised and characterised.

For a further data set, the target named is CYP2C9 (Homo sapiens (Human), UniProt P11712). The data set is described as follows: Assay B: Cytochrome P450 Inhibition 2C9.
Sequence of CYP2C9 (P11712 whole entry): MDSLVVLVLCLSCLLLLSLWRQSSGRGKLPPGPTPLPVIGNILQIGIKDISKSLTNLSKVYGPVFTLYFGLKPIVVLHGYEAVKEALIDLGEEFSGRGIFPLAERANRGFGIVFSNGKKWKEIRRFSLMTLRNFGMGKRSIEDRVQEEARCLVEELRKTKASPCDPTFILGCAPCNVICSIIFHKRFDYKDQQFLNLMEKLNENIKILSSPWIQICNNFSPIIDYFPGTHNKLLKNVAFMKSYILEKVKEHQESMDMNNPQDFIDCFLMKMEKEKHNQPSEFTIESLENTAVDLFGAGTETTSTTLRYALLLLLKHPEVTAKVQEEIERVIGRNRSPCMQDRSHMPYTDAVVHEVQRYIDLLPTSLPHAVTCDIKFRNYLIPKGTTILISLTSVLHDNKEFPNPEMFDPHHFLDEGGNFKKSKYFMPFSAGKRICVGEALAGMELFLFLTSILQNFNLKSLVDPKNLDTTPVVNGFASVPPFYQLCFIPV

Sequence of human CB1 receptor expressed in transfected CHO cells (P21554 whole entry): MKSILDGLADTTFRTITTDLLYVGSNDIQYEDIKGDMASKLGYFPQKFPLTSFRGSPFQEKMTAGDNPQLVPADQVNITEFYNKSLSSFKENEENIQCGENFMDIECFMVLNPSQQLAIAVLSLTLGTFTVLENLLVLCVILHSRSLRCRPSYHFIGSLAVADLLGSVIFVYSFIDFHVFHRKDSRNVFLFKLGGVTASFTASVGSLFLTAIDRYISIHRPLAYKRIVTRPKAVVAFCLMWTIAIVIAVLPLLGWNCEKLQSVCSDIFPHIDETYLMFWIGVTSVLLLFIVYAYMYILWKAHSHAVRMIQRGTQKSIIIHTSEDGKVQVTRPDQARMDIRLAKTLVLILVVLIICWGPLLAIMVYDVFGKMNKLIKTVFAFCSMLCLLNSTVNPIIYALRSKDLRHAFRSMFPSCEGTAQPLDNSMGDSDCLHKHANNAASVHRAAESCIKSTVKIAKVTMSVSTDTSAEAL
Sequence of over expressed HSD17β13 in HEK293S cells (Q7Z5P4 20-300): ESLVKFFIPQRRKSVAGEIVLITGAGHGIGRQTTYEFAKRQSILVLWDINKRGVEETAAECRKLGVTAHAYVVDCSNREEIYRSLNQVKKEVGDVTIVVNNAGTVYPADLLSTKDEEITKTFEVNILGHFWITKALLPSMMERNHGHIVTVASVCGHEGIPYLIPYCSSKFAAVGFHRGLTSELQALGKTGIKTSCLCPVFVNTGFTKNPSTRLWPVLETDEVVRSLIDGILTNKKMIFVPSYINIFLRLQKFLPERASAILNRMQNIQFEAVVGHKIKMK
Protocol for CYP2C9: A fluorescence-based method in 96-well format was used to determine the inhibition of 2C9 (Crespi, C. L. et al., Microtiter plate assays for inhibition of human, drug-metabolizing cytochromes P450. Anal Biochem 1997, 248 (1), 188-190. DOI: 10.1006/abio.1997.2145, which is incorporated herein by reference). The recombinant human enzymes used were prepared in house, except for CYP2D6 (CYPEX LTD, Dundee, UK). Different coumarin substrates, biotransformed into fluorescent metabolites, were used as probes for each individual CYP. A fluorescence plate reader (SPECTRAMAX GEMINIXS, MOLECULAR DEVICES, Sunnyvale, California, USA) was used to measure the levels of metabolites formed. A dilution series of the test substrates was prepared at eight different concentrations. For each CYP, a mixture of the enzyme, corresponding coumarin substrate, potassium phosphate buffer pH 7.4 and water (concentrations and volumes were CYP-dependent) were added to each well in a black 96-well plate. The test substrates at different concentrations were added. After 10 min pre-incubation, the co-factor NADPH was added to initiate the reaction. After 20-50 min (CYP and substrate-dependent) the reaction was terminated by addition of trisbase/MeCN (20:80). The plates were transferred to the fluorescence plate reader where the wavelengths were set individually for the different coumarin substrates and their respective fluorescent metabolite. The responses were exported to Excel where the IC50 curves were plotted (percent inhibition versus concentration) and IC50 values calculated for each test substrate and enzyme using XL-fit.

As for `C[C@@H]1CN(C(=O)c2noc(-c3cc(F)c(F)c(O)c3F)n2)C[C@H](C)O1` [Example 87, ((2R,6S)-2,6-Dimethylmorpholino)(5-(2,4,5-trifluoro-3-hydroxyphenyl)-1,2,4-oxadiazol-3-yl)methanone], in data set [1], the EC50 amounted to 46 µM. For the same compound, the IC50 in data set [2] is 36.3 µM; in data set [3] it was 0.06 µM; at CYP2C9, 15.4 µM. In addition, the metabolites identified result in data set [4] is “yielded Metabolite 1 and Metabolite 2”.

Consider `CC[C@H]1CN(C(=O)c2noc(-c3cc(F)c(F)c(O)c3F)n2)C[C@@H](C)O1` (racemic) [Example 121, rac-((2R,6S)-2-Ethyl-6-methylmorpholino)(5-(2,4,5-trifluoro-3-hydroxyphenyl)-1,2,4-oxadiazol-3-yl)methanone], for which the EC50 in data set [1] is over 10 µM. Also, the results for the IC50 (in data set [2]; in data set [3]; against CYP2C9) were 16.4 µM, 0.02 µM and 7.7 µM, respectively.

`CC1CN(C(=O)c2noc(-c3cc(F)c(F)c(O)c3F)n2)CC2(CCC2)O1` (racemic) [Example 123, (6-Methyl-5-oxa-8-azaspiro[3.5]nonan-8-yl)(5-(2,4,5-trifluoro-3-hydroxyphenyl)-1,2,4-oxadiazol-3-yl)methanone]: in data set [1], the EC50 is over 3 µM. Further, the IC50 in data set [2] amounted to 30 µM; in data set [3], 0.08 µM; at CYP2C9 it was 9.3 µM.

As for `O=C(c1noc(-c2cc(F)c(F)c(O)c2F)n1)N1CCO[C@@H]2CCC[C@@H]21` [Example 113, ((4aS,7aR)-Hexahydrocyclopenta[b][1,4]oxazin-4(4aH)-yl)(5-(2,4,5-trifluoro-3-hydroxyphenyl)-1,2,4-oxadiazol-3-yl)methanone], the half-maximal effective concentration (EC50) in data set [1] was 0.4 µM. Further, the IC50 in data set [2] is over 50 µM; in data set [3], 0.1 µM; at CYP2C9 it was 4.2 µM.

One may read the EC50 as the concentration needed to bring the measured effect to its halfway point. As a reminder, the IC50 is the midpoint of a concentration-inhibition curve.
